Data set [1] relates to Trypanosoma brucei brucei. The data set is described as follows: Antitrypanosomal activity against Trypanosoma brucei brucei. Type of data set: functional, organism-based.
Data set [2] deals with Trypanosoma brucei rhodesiense. The data set is described as follows: Antitrypanosomal activity against Trypanosoma brucei rhodesiense. In kind it is functional, organism-based.
The subject of data set [3] is Trypanosoma brucei. The experiment in a line: Inhibition of Trypanosoma brucei AdoMetDC assessed as ratio of Kinact to Ki(apparent).
Data set [4] relates to Trypanosoma brucei brucei. The data set is described as follows: Antitrypanosomal activity against Trypanosoma brucei brucei infected mouse assessed as reduction in parasitemia. In kind it is functional, organism-based.
Data set [5] is described as follows: Distribution coefficient, log D at pH 7.4 by shake flask method. In kind it is physicochemical. The following applies: octanol/water.
Data set [6] is described as follows: Half life in single dose ip administered mouse. In kind it is ADME, organism-based. As to conditions: in vivo.
The nature of data set [7]: Cmax in brain of single dose ip administered mouse. In kind it is ADME, organism-based. Also on record: route intraperitoneal.
A short description of data set [8]: AUC in blood of single dose ip administered mouse. Type of data set: ADME, organism-based.
Data set [9] in a line: Cmax in blood of single dose ip administered mouse. Type of data set: ADME, organism-based. Also on record: route intraperitoneal.
The nature of data set [10]: AUC in brain of single dose ip administered mouse. In kind it is ADME, organism-based.

The structures appear in SMILES notation. Active and inactive are the calls of the source. No cut-off for these calls is given here.

What is called IC50 is the concentration that gives 50% inhibition. The logD is lipophilicity at a set pH, counting ionised and neutral species. High values mean a more lipophilic compound, low ones a more hydrophilic compound. In general, half-life refers to the time in which the quantity being followed falls by half. A low value points to fast loss. A word on the Cmax: it is the peak of the concentration-time curve. Broadly, the AUC is concentration integrated over time. High values mean more exposure, low ones less exposure.

In data set [1], `CCCc1nc2c(N)ncnc2n1[C@@H]1O[C@H](CN(C)C/C=C\CN)[C@@H](O)[C@H]1O` had an IC50 of 11000 nM.

As to `CN(C/C=C\CN)C[C@H]1O[C@@H](n2cnc3c(N)ncnc32)[C@H](O)[C@@H]1O`, the IC50 in data set [2] worked out at 11 nM; in [1], 210 nM. For the same compound, the Ratio in data set [3] was 1.5. Moreover, the result in [4] was Active. This compound returned a logD in [5] of -1.8.

The compound `CCc1nc2c(N)ncnc2n1[C@@H]1O[C@H](CN(C)C/C=C\CN)[C@@H](O)[C@H]1O` showed an IC50 in [1] of 900 nM.

In data set [1], `Cc1nc(N)c2ncn([C@@H]3O[C@H](CN(C)C/C=C\CN)[C@@H](O)[C@H]3O)c2n1` returned an IC50 above 14000 nM.

For `CN(C/C=C\CN)C[C@H]1O[C@@H](n2cnc3c(N)ncnc32)[C@H](F)[C@@H]1O`, the IC50 in data set [2] is 1400 nM; in data set [1] it was above 14000 nM. The Ratio in [3] worked out at 0.19.

Take `CN(C/C=C\CN)C[C@H]1O[C@@H](n2cnc3c(N)ncnc32)[C@@H](F)[C@@H]1O`: the IC50 in [2] is 2600 nM; in [1] it was above 14000 nM. Besides, the Ratio in data set [3] came out at 0.19.

Take `Cc1nc2c(N)ncnc2n1[C@@H]1O[C@H](CN(C)C/C=C\CN)[C@@H](O)[C@H]1O`: the results for the IC50 in data set [2] and in [1] were 1 nM and 27 nM, respectively. Besides, the half-life in [6] is 7.43 h. For the same compound, in [3], the Ratio came out at 7.78. Further, the figures for the Cmax in data set [7] and in data set [9] were 660 ng/mL and 36900 ng/mL, respectively. Also, in data set [4], the result was Active. The results for the AUC in [8] and in data set [10] were 17900 ng·h/mL and 1300 ng·h/mL, respectively.

Turning to `CN(C/C=C\CN)C[C@H]1O[C@@H](n2cnc3c(N)nc(Cl)nc32)[C@H](O)[C@@H]1O`, the IC50 in [2] was 1700 nM; in [1], 7270 nM. For the same compound, the Ratio in [3] turned out to be 0.02.

Source of the values: ChEMBL document CHEMBL1136916, “Discovery of new S-adenosylmethionine decarboxylase inhibitors for the treatment of Human African Trypanosomiasis (HAT)” (Bioorg Med Chem Lett, 2009).
